# Assays:
# [1] = Compartmentalisation of small molecules in water-in-fluorocarbon emulsions (epifluorescence microscopy); format: physicochemical; settings: water-in-perfluorooctyl bromide emulsions mixed by vortexing, 24 hours after mixing
# Description: Water-in-fluorocarbon emulsions containing 95% (v/v) perfluorooctyl bromide, 5% (v/v) phosphate buffered saline containing the molecule of interest in solution, and 2% (w/v) C8F17C11H22OP(O)[N(CH2CH2)2O]2 (F8H11DMP) as surfactant were formed essentially as (Sadtler et al., 1996) by extrusion (15 times) through 14 μm filters (Osmonics) or by homogenising for 5 min at 25,000 r.p.m. using an Ultra-Turrax T8 Homogenizer (IKA) with a 5 mm dispersing tool. Emulsions were made containing a series of small fluorescent molecules dissolved in the aqueous phase at concentrations from […] to 2 mM. These molecules, including calcein, texas red, fluorescein, coumarin 102, 7-hydroxycoumarin-3-carboxylic acid and 7-diethylamino-4-methyl coumarin (coumarin 1), had molecular weights from 203 to 625 Da and Log P values—calculated using SRC's LogKow/KowWin Program (Meylan and Howard, 1995)—ranging from −0.49 to 4.09. Emulsions containing different coloured fluorochromes were mixed by vortexing. Compartmentalisation was observed by epifluorescence microscopy of the mixed emulsions. No exchange between compartments was observed 24 hours after mixing (see FIG. 5).
# [2] = biological target: T1, human recombinant PTP1B, residues 1-322 (Homo sapiens, UniProt P18031); assay: Screening for PTP1B inhibitors in water-in-oil emulsion microcapsules with fluorogenic substrate DiFMUP, multi-colour flow cytometry; format: biochemical; settings: PTP1B 5 mU/ml, 37° C. for 30 min
# T1 construct: human recombinant PTP1B, residues 1-322; Biomol Research Laboratories, Inc; purchased Biomol Research Laboratories, Inc
# T1 sequence (P18031 1-322): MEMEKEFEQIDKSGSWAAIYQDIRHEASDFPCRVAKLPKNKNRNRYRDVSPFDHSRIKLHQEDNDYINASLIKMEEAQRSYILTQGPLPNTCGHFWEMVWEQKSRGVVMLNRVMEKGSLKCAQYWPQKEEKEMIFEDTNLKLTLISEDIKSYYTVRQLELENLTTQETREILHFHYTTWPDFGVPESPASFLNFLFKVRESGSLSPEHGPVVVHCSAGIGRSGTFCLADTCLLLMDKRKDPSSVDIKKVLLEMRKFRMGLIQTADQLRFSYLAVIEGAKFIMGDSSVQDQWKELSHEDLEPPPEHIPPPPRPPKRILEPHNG
# Description: A solution of 1% (w/v) Span 60 and 1% (w/v) cholesterol in decane (all from Sigma Aldrich) is prepared by dissolving 80 mg of Span 60 and 80 mg of cholesterol into 7.84 ml of decane. The decane is heated to 45° C. to allow complete solubilization of the surfactant and cholesterol. The surfactant/decane solution is divided over batches of 200 μl and placed in a block-heater at 37° C.
# A hand-extruding device (Mini extruder, Avanti Polar Lipids Inc, Alabaster, Ala., USA) is assembled according to the manufacturer's instructions. For extrusion, a single 19 mm Track-Etch polycarbonate filter with average pore size of 14 μm (Whatman Nuclepore, Whatman, Maidstone, UK) is fitted inside the mini extruder. Two gas-tight 1 ml Hamilton syringes (Gastight #1001, Hamilton Co, Reno, Nev., USA) are used for extrusion. […]
# The two emulsions are mixed by vortexing in ratios varying from 1:1000 to 1:1 (compound 2 emulsion: hydrocinnamic acid emulsion) and incubated at 37° C. for 30 min. Inhibitors reduce the amount of non-fluorescent substrate (DiFMUP) converted to the dephosphorylated product (DiFMU; excitation/emmission maxima 358/452 nm; blue fluorescence). […]
# The double emulsions are then analysed by multi-colour flow cytometery using a MoFlo (Cytomation) flow cytometer. […]
# [3] = biological target: T1, human recombinant PTP1B, residues 1-322; assay: Screening for PTP1B inhibition using microcapsules in microfluidic systems (DiFMUP, epifluorescence microscope); format: biochemical; settings: Example 5: 100 μM compound solution, PTP1B 50 mU/ml, microfluidic droplets in PFD carrier fluid
# Description: Microchannels are fabricated with rectangular cross-sections using rapid prototyping in poly(dimethylsiloxane) (PDMS) (McDonald and Whitesides, 2002) and rendered hydrophobic as (Song and Ismagilov, 2003). Syringe pumps were used to drive flows (Harvard Apparatus PHD 2000 Infusion pumps). For aqueous solutions, 50 μl Hamilton Gastight syringes (1700 series, TLL) with removeable needles of 27-gaugeare used with 30-gauge Teflon tubing (Weico Wire and Cable). For the carrier fluid, 1 ml Hamilton Gastight syringes (1700 series, TLL) are used with 30-gauge Teflon needles with one hub from Hamilton (Song and Ismagilov, 2003). The carrier fluid is 9% (v/v) C6F11C2H4OH in perfluorodecaline (PFD) (Song et al., 2003). All water-soluble reagents were dissolved in (25 mM HEPES, pH 7.4, 125 mM NaCl, 1 mM EDTA), a buffer compatible with PTP1B activity.
# These three steams are continuously injected into a flow of water immiscible fluorocarbon carrier fluid (9% (v/v) C6F11C2H4OH in PFD). Inlet channels for the aqeous solutions are […] wide and channel for PFD is 28 μm wide. […]
# The channel immediately downstream of the point of droplet formation is winding with a peak to peak distance of 50 μm for a distance of 1 mm. […] Fluorescence of the microcapsules due to production of DiFMU (excitation/emmission maxima 358/452 nm; blue fluorescence) is measured using an epifluorescence microscope. […]
compound,measurement,setting,value
texas-red,exchange between microdroplets / compartments,[1],No exchange
O=C(O)CCc1ccccc1 [hydrocinnamic acid],blue fluorescence of microcapsules (dephosphorylation of DiFMUP by PTP1B),"[2]; Example 1: 100 μM compound, two emulsions mixed by vortexing",blue fluorescence due to dephosphorylation of DiFMUP by PTP1B
same,blue fluorescence of microcapsules (dephosphorylation of DiFMUP by PTP1B),"[2]; Example 2: 100 μM compound, mixtures added sequentially while homogenising",blue fluorescence due to dephosphorylation of DiFMUP by PTP1B
same,fluorescence of microcapsules due to production of DiFMU,[3],exhibiting blue fluorescence
O=C(O)CN(CC(=O)O)Cc1cc2c(cc1O)Oc1cc(O)c(CN(CC(=O)O)CC(=O)O)cc1C21OC(=O)c2ccccc21 [calcein],exchange between microdroplets / compartments,[1],No exchange
